Experimental data reported in the NIST ThermoML archive (doi:10.1016/j.jct.2015.11.017).
Numbers after ± are expanded uncertainties.

Assay: mn = molality of the nth substance listed, in mol/kg
Conditions: 298.2 K, 101.3 kPa, Liquid, Alternating current cell with electrodes

## CCCCCCCCCCCCOS(=O)(=O)[O-].[Na+] [sodium dodecyl sulfate] + O
m1 = 0.01003
  electrical conductivity: 0.0586 ± 0.001 S/m
m1 = 0.01504
  electrical conductivity: 0.0684 ± 0.001 S/m
m1 = 0.02006
  electrical conductivity: 0.0816 ± 0.001 S/m
m1 = 0.02507
  electrical conductivity: 0.097 ± 0.01 S/m
m1 = 0.03009
  electrical conductivity: 0.106 ± 0.01 S/m
